Data published in WO2022059996A1, “Blood circulation micro in-vitro corpuscle-mediated cancer treatment composition” (SEOUL TECHNO HOLDINGS Inc, priority 2020, dated 2022).

Columns and labels:
LNCaP-SL cells [1] = assay: csEV-mediated LNCaP-SL transwell migration inhibition; format: cell-based, human; conditions: csEV as attractant
HCT116 cells = assay: Antiproliferative screening in HCT116 colon cancer cells; format: cell-based, human; conditions: medium containing csEV and compound; inhibitory in both HCT116 and LNCaP-SL
YAP [2] = assay: csEV-induced nuclear localization of YAP in GR-H1993 cells; format: cell-based
LNCaP-SL cells [3] = assay: Antiproliferative screening in metastatic LNCaP-SL prostate cancer cells; format: cell-based, human; conditions: medium containing csEV and compound; inhibitory in both HCT116 and LNCaP-SL
[4] = tested on: GR-H1993 (gefitinib-resistant-H1993) cells; assay: csEV-mediated proliferation of GR-H1993 cells; format: cell-based; conditions: csEV treatment
YAP [5] = assay: Immunocytochemical analysis of YAP expression and nuclear localization; format: cell-based; conditions: csEV incubation; KRCT-6j given on top of csEV
LNCaP-SL cells [6] = assay: LNCaP-SL proliferation with docetaxel in the presence or absence of EV; format: cell-based, human; conditions: 50 nM docetaxel; EV-containing normal 10% FBS versus 10% FBS without EVs
GR-H1993 cells = assay: GR-H1993 xenograft mouse model; format: in vivo; conditions: gefitinib 25 mg/kg PO, KRCT-6j 20 mg/kg IP, daily for 28 days, male Athymic BALB/c-nu mice

## Cn1cc(-c2cnc(Nc3cc(Cl)cc(Cl)c3)nc2NC2CCCCC2)cn1 [KRCT-6j, N 4 -Cyclohexyl-N 2-(3,5-dichlorophenyl)-5-(1-methyl-1 H -pyrazol-4-yl)pyrimidine-2,4-diamine]
LNCaP-SL cells [1]
  inhibition of csEV-promoted migration of LNCaP-SL cells: inhibited by KRCT-6j in a concentration-dependent manner
HCT116 cells
  proliferation inhibitory response, HCT116: both cell inhibitory responses
YAP [2]
  csEV-induced nuclear localization of YAP: inhibited
LNCaP-SL cells [3]
  proliferation inhibitory response, LNCaP-SL: both cell inhibitory responses
[4]
  proliferation of GR-H1993 cells: inhibit only the proliferative effect of csEV-mediated GR-H1993
YAP [5]
  YAP expression and nuclear localization: decreased again

## CC(=O)O[C@@]12CO[C@@H]1C[C@H](O)[C@@]1(C)C(=O)[C@H](O)C3=C(C)[C@@H](OC(=O)[C@H](O)[C@@H](NC(=O)OC(C)(C)C)c4ccccc4)C[C@@](O)([C@@H](OC(=O)c4ccccc4)[C@H]21)C3(C)C [docetaxel]
LNCaP-SL cells [6]
  resistance of LNCaP-SL cells to docetaxel: much more resistant to docetaxel

## COc1cc2ncnc(Nc3ccc(F)c(Cl)c3)c2cc1OCCCN1CCOCC1 [gefitinib]
GR-H1993 cells
  tumor growth, GR-H1993 xenograft: did not affect tumor growth
